Laboratory results: US20160102074A1, “SUBSTITUTED AMIDE COMPOUNDS” (PFIZER INC., priority 2014, published 2016)

Assays:
[1] = tested on: human PCSK9; assay: PCSK9 AlphaLISA assay, PCSK9 lowering in WT7 cells; settings: WT7 cells (Huh7 stably over-expressing human PCSK9), secreted PCSK9 by AlphaLISA, overnight incubation (16-24 h), top concentration 20 μM; read-out: Cell Based PCSK9 IC50
Description: PCSK9 Lowering in WT7 Cells
An in-vitro AlphaLISA assay (Perkin Elmer) was developed in order to quantitate the level of PCSK9 secreted into the cell culture media following compound treatment. To detect and measure PCSK9 protein a mouse monoclonal anti-human PCSK9 antibody was coupled to AlphaLISA acceptor beads by an external vendor (Perkin Elmer) and a second rabbit monoclonal anti-human PCSK9 antibody with an epitope distinct from that of the acceptor beads was biotinylated using the EZ link NHS-LC-LC-Biotin kit (Life Technologies #21338). Streptavidin coated-donor beads (Perkin Elmer) are also included in the assay mixture which then binds the biotinylated anti-PCSK9 antibody and in the presence of PCSK9 this donor complex and acceptor beads are brought into close proximity. Upon excitation of the donor beads at 680 nm singlet oxygen molecules are released that trigger an energy transfer cascade within the acceptor beads resolving as a single peak of light emitted at 615 nm. The ability of compound to modulate PCSK9 protein levels in conditioned media by AlphaLISA was assessed in the human hepatocellular carcinoma cell line Huh7, stably over-expressing human PCSK9. This cell line, termed WT7, was established by transfecting Huh7 cells with an in-house modified pcDNA 3.1 (+) Zeo expression vector (Life Technologies) containing the full-length human PCSK9 sequence (NCBI reference identifier, NM_174936.3, where coding sequence start annotated at position 363) and a c-terminal V5 and 6×-His tag. Following plasmid transfection the stable WT7 clone was identified and maintained under Zeocin selection. Compound screening was performed in 384-well plates where WT7 cells were plated at a density of 7500 cells per well in 20 μL of tissue culture media containing compound in an eleven point, 0.5 log dilution format at a high treatment concentration of 20 μM in a final volume of 0.5% DMSO. In additional to these test compound conditions each screening plate also included wells that contained 20 μM puromycin as a positive assay control defined as high percent effect, HPE, as well as wells containing media in 0.5% DMSO as a negative treatment control defined as zero percent effect, ZPE. After overnight compound incubation (16-24 h) the tissue culture media was collected and an aliquot from each sample was transferred to individual wells of a 384-well white Optiplate (Perkin Elmer). The coupled antibodies and donor beads were added to the assay plates in a buffer composed of 30 mM Tris pH 7.4, 0.02% Tween-20 and 0.02% Casein. Anti-PCSK9 acceptor beads (final concentration of 10 μg/mL) and anti-PCSK9 biotinylated antibody (final concentration of 3 nM) were added and incubated for 30 minutes at room temperature followed by the addition of the streptavidin donor beads (final concentration 40 μg/mL) for an additional 60 minutes. Additionally a standard curve was generated where AlphaLISA reagents were incubated in wells spiked with recombinant human PCSK9 diluted in tissue culture media from 5000 ng/mL to 0.6 ng/mL. Following incubation with AlphaLISA reagents plates were read on an EnVision (Perkin Elmer) plate reader at an excitation wavelength of […] and emission/detection wavelength of […]. To determine compound IC50 the data for HPEand ZPEcontrol wells were first analyzed and the mean, standard deviation and Z prime calculated for each plate. The test compound data were converted into percent effect, using the ZPE and HPE controls as 0% and 100% activity, respectively. The equation used for converting each well reading into percent effect was:
IC50 was then calculated and reported as the midpoint in the percent effect curve in molar units and the values are reported under the Cell Based PCSK9 IC50 (μM) column header within Table 2 Biological Data. […]

[2] = tested on: human PCSK9; assay: Cell Free PCSK9 Assay (PCSK9-luciferase mRNA translation in HeLa lysate); assay type: biochemical; settings: PCSK9-luciferase RNA, 30° C. for 45 minutes, top concentration 100 μM
Method: As defined herein inhibition of translation of PCSK9 mRNA to PCSK9 protein is determined by the “Cell Free PCSK9 Assay” provided herein in the specification. This “Cell Free PCSK9 Assay” is specific to the production of PCSK9 protein from PCSK9 mRNA and therefore detects inhibitors of this translational process rather than other mechanisms by which PCSK9 protein may be reduced.
In order to eliminate the permeability barrier inherent to the WT7 cell-based assays a cell-free system was also established to assess compound activitiy. A sequence containing the full length human PCSK9 (NCBI reference identifier, NM_174936.3, where coding sequence start annotated at position 363) along with 84 additional 3′ nucleotides, comprising a V5 tag and polylinker followed by an in frame modified firefly luciferase reporter (corresponding to nucleotide positions 283-1929 of pGL3, GenBank reference identifier JN542721.1) was cloned into the pT7CFE1 expression vector (ThermoScientific). The construct was then in-vitro transcribed using the MEGAscript T7 Kit (Life Technologies) and RNA subsequently purified incorporating the MEGAclear Kit (Life Technologies) according to manufacturer's protocols. HeLa cell lysates were prepared following the protocols described by Mikami (reference is Cell-Free Protein Synthesis Systems with Extracts from Cultured Human Cells, S. Mikami, T. Kobayashi and H. Imataka; from Methods in Molecular Biology, vol. 607, pages 43-52, Y. Endo et al. (eds.), Humana Press, 2010) with the following modifications. Cells were grown in a 20 L volume of CD293 medium (Gibco 11765-054) with Glutamax increased to 4 mM, penicillin at 100 U/mL and other additions as previously described by Mikami. Growth was in a 50 L wavebag at a rocker speed of 25 rpm and angle 6.1 with 5% CO2 and 0.2 LPM flow rate with cells harvested at a density of 2-2.5e6/mL. Lysates additionally contained 1 tablet of Roche cOmplete-EDTA protease inhibitors per 50 mL with tris(2-carboxyethyl)phosphine (Biovectra) substituted for dithiothreitol, and were clarified by an additional final centrifugation at 10,000 rpm in a Sorvall SS34 rotor at 4° C. for 10 minutes. Compound screening was performed in 384-well plates in an eleven point, 0.5 log dilution format at a top test compound concentration of 100 μM in a final volume of 0.5% DMSO. In additional to these test compound conditions each screening plate also included wells that contained 100 μM of compound example 16 (as depicted in WO2014170786; N-(3-chloropyridin-2-yl)-N-[(3R)-piperidin-3-yl]-4-(3H-[1,2,3]triazolo[4,5-b]pyridin-3-yl)benzamide) as a positive assay control defined as high percent effect, HPE, as well as wells containing media in 0.5% DMSO as a negative treatment control defined as zero percent effect, ZPE. Compounds were incubated at 30° C. for 45 minutes in a solution containing 0.1 μg of purified, in-vitro transcribed RNA together with the cell-free reaction mixture (consisting of 1.6 mM Mg and 112 mM K salts, 4.6 mM tris(2-carboxyethyl)phosphine (Biovectra), 5.0 μL HeLa lysate, 0.2 μL RNAsin (Promega) and 1.0 μL energy mix (containing 1.25 mM ATP (Sigma), 0.12 mM GTP (Sigma), 20 mM creatine phosphate (Santa Cruz), 60 μg/mL creatine phosphokinase (Sigma), 90 μg/mL tRNA (Sigma) and the 20 amino acids (Life Technologies) at final concentrations described by Mikami) and brought up in water to a final volume of 10 μL in water. Upon assay completion 1 μL from each reaction solution was removed and transferred to a second 384-well Optiplate (Perkin Elmer) containing 24 μL of SteadyGlo (Promega) and signal intensity was measured on the Envision (Perkin Elmer) using the enhanced luminescence protocol. To determine compound IC50 the data for HPE and ZPE control wells were first analyzed and the mean, standard deviation and Z prime calculated for each plate. The test compound data were converted into percent effect, using the ZPE and HPE controls as 0% and 100% activity, respectively, applying Equation 1 above. […]

IC50 [1]	IC50 [2]	Structure (SMILES)
> 20 µM	5.8 µM	Cc1cccnc1N(C(=O)c1ccc(-c2cnn(C)c2-c2nn[nH]n2)cn1)[C@@H]1CCCNC1 [Example 1, N-(3-methylpyridin-2-yl)-5-[1-methyl-5-(2H-tetrazol-5-yl)-1H-pyrazol-4-yl]-N-[(3R)-piperidin-3-yl]pyridine-2-carboxamide]
17.3 µM	15.4 µM	CCOC(=O)O[C@H](C)n1nnnc1-c1c(-c2ccc(C(=O)N(c3ncccc3Cl)[C@@H]3CCCNC3)cc2)cnn1C [Example 12, ethyl (R)-1-{5-[1-methyl-4-(4-{(3-chloropyridin-2-yl)[(3R)-piperidin-3-yl]carbamoyl}phenyl)-1H-pyrazol-5-yl]-1H-tetrazol-1-yl}ethyl carbonate]
> 20 µM	10.5 µM	Cn1ncc(-c2ccc(C(=O)N(c3ncccc3Cl)[C@@H]3CCCNC3)nc2)c1-c1nn[nH]n1 [Example 2, N-(3-chloropyridin-2-yl)-5-[1-methyl-5-(2H-tetrazol-5-yl)-1H-pyrazol-4-yl]-N-[(3R)-piperidin-3-yl]pyridine-2-carboxamide]
> 20 µM	15.3 µM	Cc1cccnc1N(C(=O)c1ccc(-c2cnn(C)c2-c2nn[nH]n2)c(F)c1)[C@@H]1CCCNC1 [Example 4, N-(3-methylpyridin-2-yl)-3-fluoro-4-[1-methyl-5-(2H-tetrazol-5-yl)-1H-pyrazol-4-yl]-N-[(3R)-piperidin-3-yl]benzamide]
